Results from patent publication US9221809B2 (MERCK SHARP & DOHME CORP., priority 2011, dated 2015).

Biological target: IRAK4 (Homo sapiens (Human), UniProt Q9NWZ3)
Assay: IRAK4 kinase activity, IMAP fluorescence polarization assay
Assay type: biochemical
Settings: 100 μM ATP; read-out: IC50
Procedure, shortened: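 GST-tagged IRAK4 at 0.5 nM phosphorylates 100 nM fluorescent peptide substrate with 100 μM ATP in pH 7.2 Tris buffer containing MgCl2, DTT and Tween 20, 30 min at 25 °C. Reaction stopped with IMAP binding reagent; phosphorylation read as increased fluorescence polarization.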

Sequence of IRAK4 (Q9NWZ3 whole entry): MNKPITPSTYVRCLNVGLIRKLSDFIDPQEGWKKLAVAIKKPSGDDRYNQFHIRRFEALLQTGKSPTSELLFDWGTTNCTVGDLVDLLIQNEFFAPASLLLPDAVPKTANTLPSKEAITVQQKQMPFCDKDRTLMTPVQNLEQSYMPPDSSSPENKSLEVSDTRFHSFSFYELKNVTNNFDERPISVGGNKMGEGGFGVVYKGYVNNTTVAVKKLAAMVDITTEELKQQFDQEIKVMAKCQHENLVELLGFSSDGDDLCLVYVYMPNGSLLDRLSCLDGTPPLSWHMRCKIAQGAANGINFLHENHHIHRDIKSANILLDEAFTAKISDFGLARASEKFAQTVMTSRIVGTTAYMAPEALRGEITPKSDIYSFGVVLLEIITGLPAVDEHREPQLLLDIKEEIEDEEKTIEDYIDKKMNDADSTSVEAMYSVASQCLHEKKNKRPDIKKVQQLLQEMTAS

| SMILES | IC50 [nM] |
| --- | --- |
| O=c1[nH]c(N2CCOCC2)nc(NCCNCCO)c1-c1nc2ccccc2s1 [Example 251, 5-(benzo[d]thiazol-2-yl)-6-(2-(2-hydroxyethyl-amino)ethylamino)-2-morpholino-pyrimidin-4(3H)-one] | 640 |
| O=c1[nH]c(N2CCOCC2)nc(NCCN2CCCCC2)c1-c1nc2ccccc2s1 [Example 257, 5-(1,3-benzothiazol-2-yl)-2-(morpholin-4-yl)-6-[[2-(piperidin-1-yl)ethyl]amino]-3,4-dihydropyrimidin-4-one] | 2 |
| O=c1[nH]c(N2CCOCC2)nc(NCCN2CCC(O)CC2)c1-c1nc2ccccc2s1 [Example 258, 5-(1,3-benzothiazol-2-yl)-6-[[2-(4-hydroxypiperidin-1-yl)ethyl]amino]-2-(morpholino-4-yl)-3,4-dihydropyrimidin-4-one] | 780 |
| CN(C)CCNc1nc(N2CCOCC2)[nH]c(=O)c1-c1nc2ccccc2s1 [Example 260, 5-(1,3-benzothiazol-2-yl)-6-[[2-(dimethylamino)ethyl]amino]-2-(morpholin-4-yl)-3,4-dihydropyrimidin-4-one] | 1600 |
| CC(=O)NCCNc1nc(N2CCOCC2)[nH]c(=O)c1-c1nc2ccccc2s1 [Example 261, N-(2-[[5-(1,3-benzothiazol-2-yl)-2-(morpholin-4-yl)-6-oxo-1,6-dihydropyrimidin-4-yl]amino]ethyl)acetamide] | 8200 |
| CCC(CO)Nc1nc(N2CCOCC2)[nH]c(=O)c1-c1nc2ccccc2s1 (stereo not drawn) [Example 262, 5-(benzo[d]thiazol-2-yl)-6-(1-hydroxy-butan-2-ylamino)-2-morpholino-pyrimidin-4(3H)-one] | 330 |
| O=c1[nH]c(N2CCOCC2)nc(NCCc2ncc[nH]2)c1-c1nc2ccccc2s1 [Example 264, 6-(2-(1H-imidazol-2-yl)ethylamino)-5-(benzo[d]thiazol-2-yl)-2-morpholino-pyrimidin-4(3H)-one] | 180 |
| CC(C)C[C@H](CO)Nc1nc(N2CCOCC2)[nH]c(=O)c1-c1nc2ccccc2s1 [Example 266, (R)-5-(benzo[d]thiazol-2-yl)-6-(1-hydroxy-4-methylpentan-2-ylamino)-2-morpholinopyrimidin-4(3H)-one] | 2500 |
| O=c1[nH]c(N2CCOCC2)nc(N[C@H]2c3ccccc3C[C@H]2O)c1-c1nc2ccccc2s1 [Example 267, 5-(benzo[d]thiazol-2-yl)-6-((1S,2R)-2-hydroxy-2,3-dihydro-1H-inden-1-ylamino)-2-morpholinopyrimidin-4(3H)-one] | 8300 |
| O=c1[nH]c(N2CCOCC2)nc(NC(CO)CO)c1-c1nc2ccccc2s1 [Example 270, 5-(benzo[d]thiazol-2-yl)-6-(1,3-dihydroxy-propan-2-ylamino)-2-morpholinopyrimidin-4(3H)-one] | 110 |
| CN(C)CCNc1nc(N2CCOCC2)[nH]c(=O)c1-c1ccc2ccccc2n1 [Example 272, 6-[[2-(dimethylamino)ethyl]amino]-2-(morpholin-4-yl)-5-(quinolin-2-yl)-3,4-dihydropyrimidin-4-one] | 1600 |
| O=c1[nH]c(N2CCOCC2)nc(NCCNCCO)c1-c1ccc2ccccc2n1 [Example 273, 6-([2-[(2-hydroxyethyl)amino]ethyl]amino)-2-(morpholin-4-yl)-5-(quinolin-2-yl)-3,4-dihydropyrimidin-4-one] | 670 |
| CN1CCCC(Nc2nc(N3CCOCC3)[nH]c(=O)c2-c2ccc3ccccc3n2)C1 (stereo not drawn) [Example 274, 6-[(1-methylpiperidin-3-yl)amino]-2-(morpholin-4-yl)-5-(quinolin-2-yl)-3,4-dihydropyrimidin-4-one] | 720 |
| O=c1[nH]c(N2CCOCC2)nc(NC2CNC2)c1-c1ccc2ccccc2n1 [Example 275, 6-[(azetidin-3-yl)amino]-2-(morpholin-4-yl)-5-(quinolin-2-yl)-3,4-dihydropyrimidin-4-one] | 150 |
| O=c1[nH]c(N2CCOCC2)nc(NCC2CCCCN2)c1-c1ccc2ccccc2n1 (stereo not drawn) [Example 276, 2-morpholino-6-(piperidin-2-ylmethylamino)-5-(quinolin-2-yl)pyrimidin-4(3H)-one] | 340 |
| CCN1CCCC1CNc1nc(N2CCOCC2)[nH]c(=O)c1-c1ccc2ccccc2n1 (stereo not drawn) [Example 277, 6-((1-ethylpyrrolidin-2-yl)methylamino)-2-morpholino-5-(quinolin-2-yl)pyrimidin-4(3H)-one] | 1600 |
| O=c1[nH]c(N2CCOCC2)nc(NCCN2CCCCC2)c1-c1ccc2ccccc2n1 [Example 278, 2-(morpholin-4-yl)-6-[[2-(piperidin-1-yl)ethyl]amino]-5-(quinolin-2-yl)-3,4-dihydropyrimidin-4-one] | 2800 |
| O=c1[nH]c(N2CCOCC2)nc(NCCN2CCCC2)c1-c1ccc2ccccc2n1 [Example 279, 2-(morpholin-4-yl)-6-[[2-(pyrrolidin-1-yl)ethyl]amino]-5-(quinolin-2-yl)-3,4-dihydropyrimidin-4-one] | 4900 |
| O=c1[nH]c(N2CCOCC2)nc(NCC(O)CO)c1-c1ccc2ccccc2n1 (stereo not drawn) [Example 281, 6-[(2,3-dihydroxypropyl)amino]-2-(morpholin-4-yl)-5-(quinolin-2-yl)-3,4-dihydropyrimidin-4-one] | 1700 |
| O=c1[nH]c(N2CCOCC2)nc(NCCN2CCC(O)CC2)c1-c1ccc2ccccc2n1 [Example 282, 6-[[2-(4-hydroxypiperidin-1-yl)ethyl]amino]-2-(morpholin-4-yl)-5-(quinolin-2-yl)-3,4-dihydropyrimidin-4-one] | 2200 |
| O=c1[nH]c(N2CCOC(CO)C2)nc(N[C@@H]2CCCNC2)c1-c1nc2ccccc2s1 (stereo partly drawn) [Example 285, 5-(1,3-benzothiazol-2-yl)-2-[2-(hydroxymethyl)morpholin-4-yl]-6-[[(3R)-piperidin-3-yl]amino]-3,4-dihydropyrimidin-4-one] | 43 |
| COCC1CN(c2nc(N[C@@H]3CCCNC3)c(-c3nc4ccccc4s3)c(=O)[nH]2)CCO1 (stereo partly drawn) [Example 286, 5-(benzo[d]thiazol-2-yl)-2-(2-(methoxymethyl)morpholino)-6-((R)-piperidin-3-ylamino)pyrimidin-4(3H)-one] | 81 |

Next, values leading:

| IC50 [nM] | SMILES |
| --- | --- |
| 150 | CC1(Nc2nc(N3CCOCC3)[nH]c(=O)c2-c2nc3ccccc3s2)CCCNC1 (stereo not drawn) [Example 248, 5-(1,3-benzothiazol-2-yl)-6-[(3-methylpiperidin-3-yl)amino]-2-(morpholin-4-yl)-3,4-dihydro-pyrimidin-4-one] |
| 3900 | NC(=O)CNc1nc(N2CCOCC2)[nH]c(=O)c1-c1nc2ccccc2s1 [Example 249, 2-[[5-(1,3-benzothiazol-2-yl)-2-(morpholin-4-yl)-6-oxo-1,6-dihydropyrimidin-4-yl]amino]acetamide] |
| 300 | N=C(N)CNc1nc(N2CCOCC2)[nH]c(=O)c1-c1nc2ccccc2s1 [Example 250, 2-[[5-(1,3-benzothiazol-2-yl)-2-(morpholin-4-yl)-6-oxo-1,6-dihydropyrimidin-4-yl]amino]ethanimidamide] |
| 1200 | CN1CCCC(Nc2nc(N3CCOCC3)[nH]c(=O)c2-c2nc3ccccc3s2)C1 (stereo not drawn) [Example 252, 5-(1,3-benzothiazol-2-yl)-6-[(1-methylpiperidin-3-yl)amino]-2-(morpholin-4-yl)-3,4-dihydro-pyrimidin-4-one] |
| 300 | O=c1[nH]c(N2CCOCC2)nc(NC2CNC2)c1-c1nc2ccccc2s1 [Example 253, 6-[(azetidin-3-yl)amino]-5-(1,3-benzothiazol-2-yl)-2-(morpholin-4-yl)-3,4-dihydro-pyrimidin-4-one] |
| 1600 | O=c1[nH]c(N2CCOCC2)nc(NCC2CCCCN2)c1-c1nc2ccccc2s1 (stereo not drawn) [Example 254, 5-(1,3-benzothiazol-2-yl)-2-(morpholin-4-yl)-6-[(piperidin-2-ylmethyl)amino]-3,4-dihydro-pyrimidin-4-one] |
| 2000 | CCN1CCCC1CNc1nc(N2CCOCC2)[nH]c(=O)c1-c1nc2ccccc2s1 (stereo not drawn) [Example 255, 5-(1,3-benzothiazol-2-yl)-6-[[(1-ethylpyrrolidin-2-yl)methyl]amino]-2-(morpholin-4-yl)-3,4-dihydropyrimidin 4-one] |
| 55 | O=c1[nH]c(N2CCOCC2)nc(NCCN2CCNCC2)c1-c1nc2ccccc2s1 [Example 256, 5-(1,3-benzothiazol-2-yl)-2-(morpholin-4-yl)-6-[[2-(piperazin-1-yl)ethyl]amino]-3,4-dihydropyrimidin-4-one] |
| 2200 | O=c1[nH]c(N2CCOCC2)nc(NCCN2CCCC2)c1-c1nc2ccccc2s1 [Example 259, 5-(1,3-benzothiazol-2-yl)-2-(morpholin-4-yl)-6-[[2-(pyrrolidin-1-yl)ethyl]amino]-3,4-dihydropyrimidin-4-one] |
| 230 | NC1CCCCC1Nc1nc(N2CCOCC2)[nH]c(=O)c1-c1nc2ccccc2s1 (stereo not drawn) [Example 263, 6-(2-aminocyclohexylamino)-5-(benzo[d]thiazol-2-yl)-2-morpholino-pyrimidin-4(3H)-one] |
| 780 | CC(O)CNc1nc(N2CCOCC2)[nH]c(=O)c1-c1nc2ccccc2s1 (stereo not drawn) [Example 265, 5-(benzo[d]thiazol-2-yl)-6-(2-hydroxypropylamino)-2-morpholino-pyrimidin-4(3H)-one] |
| 620 | O=c1[nH]c(N2CCOCC2)nc(NC2CCC(O)CC2)c1-c1nc2ccccc2s1 (stereo not drawn) [Example 268, 5-(benzo[d]thiazol-2-yl)-6-(4-hydroxycyclo-hexylamino)-2-morpholinopyrimidin-4(3H)-one] |
| 5600 | O=c1[nH]c(N2CCOCC2)nc(NC2CCCCC2O)c1-c1nc2ccccc2s1 (stereo not drawn) [Example 269, 5-(benzo[d]thiazol-2-yl)-6-(2-hydroxycyclohexyl-amino)-2-morpholinopyrimidin-4(3H)-one] |
| 330 | O=c1[nH]c(N2CCOCC2)nc(NCC2CCNCC2)c1-c1nc2ccccc2s1 [Example 271, 5-(1,3-benzothiazol-2-yl)-2-(morpholin-4-yl)-6-[(piperidin-4-ylmethyl)amino]-3,4-dihydropyrimidin-4-one; trifluoroacetic acid] |
